Source: patent publication US20080114007A1 (priority 2006, published 2008)

Each molecule was assayed against CSF-1R (Homo sapiens, UniProt P07333) (assay: Peptide (non-phosphorylated) assay, fluorescence polarization competition immunoassay). Details: 0.7 nM CSF-1R, 308 μM SYEGNSYTFIDPTQ peptide, 1 mM ATP, 80 min; mean of at least three determinations; read-out: c-fms Peptide IC50.
Sequence of CSF-1R (P07333 20-972): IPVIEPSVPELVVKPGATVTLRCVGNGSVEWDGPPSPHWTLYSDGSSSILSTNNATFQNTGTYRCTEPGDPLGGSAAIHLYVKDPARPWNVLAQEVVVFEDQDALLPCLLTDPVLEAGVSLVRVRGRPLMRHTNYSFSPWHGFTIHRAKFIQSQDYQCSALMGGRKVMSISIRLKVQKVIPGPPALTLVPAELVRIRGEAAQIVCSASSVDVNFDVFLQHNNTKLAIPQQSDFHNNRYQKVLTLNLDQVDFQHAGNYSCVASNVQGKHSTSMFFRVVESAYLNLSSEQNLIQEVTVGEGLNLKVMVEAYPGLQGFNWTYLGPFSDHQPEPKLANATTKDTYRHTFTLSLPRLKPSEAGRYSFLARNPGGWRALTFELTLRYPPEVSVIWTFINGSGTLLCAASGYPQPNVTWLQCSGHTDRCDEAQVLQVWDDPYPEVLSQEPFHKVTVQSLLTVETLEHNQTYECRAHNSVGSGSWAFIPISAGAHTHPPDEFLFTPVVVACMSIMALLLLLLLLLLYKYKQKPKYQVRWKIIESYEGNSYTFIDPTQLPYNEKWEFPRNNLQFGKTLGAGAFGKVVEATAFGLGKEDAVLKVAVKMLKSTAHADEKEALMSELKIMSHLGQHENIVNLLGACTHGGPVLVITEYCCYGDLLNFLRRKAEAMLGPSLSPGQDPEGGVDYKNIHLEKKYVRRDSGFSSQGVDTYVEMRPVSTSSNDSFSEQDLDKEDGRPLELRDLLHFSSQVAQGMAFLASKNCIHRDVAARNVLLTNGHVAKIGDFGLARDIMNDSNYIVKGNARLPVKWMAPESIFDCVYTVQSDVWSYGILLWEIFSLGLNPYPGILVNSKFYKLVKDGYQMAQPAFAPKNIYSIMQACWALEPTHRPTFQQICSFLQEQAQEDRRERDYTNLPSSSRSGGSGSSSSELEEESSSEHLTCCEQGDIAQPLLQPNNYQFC
Assay type: biochemical
Summary of the method: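 Human CSF-1R kinase reaction started with ATP and run 80 min at room temperature, then stopped with EDTA. Phosphopeptide detected by fluorescence polarization competition using anti-phosphotyrosine antibody and PTK green tracer after 30 min. Controls used 4% DMSO, with EDTA added before reaction start for positive controls.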
For `CCc1ccc(-n2cc(C(=O)NOC)c(=O)c3cnc(Nc4ccc(CCN5CC(F)C5)cc4)nc32)cc1` [Cpd 265, 8-(4-ethyl-phenyl)-2-{4-[2-(3-fluoro-azetidin-1-yl)-ethyl]-phenylamino}-5-oxo-5,8-dihydro-pyrido[2,3-d]pyrimidine-6-carboxylic acid methoxy-amide], the IC50 was 0.57 nM. Work on `CCc1ccc(-n2cc(C(=O)NOC)c(=O)c3cnc(Nc4cccc(N5CCOCC5)c4)nc32)cc1` [Cpd 320, 8-(4-ethyl-phenyl)-2-(3-morpholin-4-yl-phenylamino)-5-oxo-5,8-dihydro-pyrido[2,3-d]pyrimidine-6-carboxylic acid methoxy-amide] yielded an IC50 of 0.5 nM. With `CC(C)ONC(=O)c1cn(-c2ccc3c(c2)CCC3)c2nc(Nc3ccc(CCN4CCN(C)CC4)cc3)ncc2c1=O` [Cpd 63, 8-indan-5-yl-2-{4-[2-(4-methyl-piperazin-1-yl)-ethyl]-phenylamino}-5-oxo-5,8-dihydro-pyrido[2,3-d]pyrimidine-6-carboxylic acid isopropoxy-amide] the IC50 was 0.52 nM. Molecule `CCONC(=O)c1cn(-c2ccc(CC)cc2)c2nc(Nc3ccc(C4CCN(CC(F)(F)F)CC4)cc3)ncc2c1=O` [Cpd 189, 8-(4-ethyl-phenyl)-5-oxo-2-{4-[1-(2,2,2-trifluoro-ethyl)-piperidin-4-yl]-phenylamino}-5,8-dihydro-pyrido[2,3-d]pyrimidine-6-carboxylic acid ethoxy-amide] has an IC50 of 9.7 nM. `CONC(=O)c1cn(-c2ccc3c(c2)CCC3)c2nc(Nc3cccc(C(=O)NCCN(C)C)c3)ncc2c1=O` [Cpd 199, 2-[3-(2-dimethylamino-ethylcarbamoyl)-phenylamino]-8-indan-5-yl-5-oxo-5,8-dihydro-pyrido[2,3-d]pyrimidine-6-carboxylic acid methoxy-amide] gave an IC50 of 1.4 nM. Molecule `CCN1CC[C@H](Oc2cccc(Nc3ncc4c(=O)c(C(=O)NOC)cn(-c5ccc6c(c5)CCC6)c4n3)c2)C1` [Cpd 263, 2-{3-[(3S)-(1-ethyl-pyrrolidin-3-yloxy)]-phenylamino}-8-indan-5-yl-5-oxo-5,8-dihydro-pyrido[2,3-d]pyrimidine-6-carboxylic acid methoxy-amide] has an IC50 of 0.56 nM. `CONC(=O)c1cn(-c2ccc3c(c2)CCC3)c2nc(Nc3ccc(CCNC4CC5CCC4C5)cc3)ncc2c1=O` (stereo not drawn) [Cpd 108, 2-{4-[2-(bicyclo[2.2.1]hept-2-ylamino)-ethyl]-phenylamino}-8-indan-5-yl-5-oxo-5,8-dihydro-pyrido[2,3-d]pyrimidine-6-carboxylic acid methoxy-amide] was tested, and the IC50 was 0.88 nM. With `CC(=O)N1CCC(c2ccc(Nc3ncc4c(=O)c(C(N)=O)cn(-c5ccc6c(c5)CCC6)c4n3)cc2)CC1` [Cpd 126, 2-[4-(1-acetyl-piperidin-4-yl)-phenylamino]-8-indan-5-yl-5-oxo-5,8-dihydro-pyrido[2,3-d]pyrimidine-6-carboxylic acid amide] the IC50 was 1.8 nM. Molecule `CONC(=O)c1cn(-c2cnc3c(c2)CCC3)c2nc(Nc3ccc(CCS(C)(=O)=O)cc3)ncc2c1=O` [Cpd 226, 8-(6,7-dihydro-5H-[1]pyrindin-3-yl)-2-[4-(2-methanesulfonyl-ethyl)-phenylamino]-5-oxo-5,8-dihydro-pyrido[2,3-d]pyrimidine-6-carboxylic acid methoxy-amide] has an IC50 of 7.7 nM. `CCc1ccc(-n2cc(C(=O)NOC)c(=O)c3cnc(Nc4ccc(-n5cccc5)cc4)nc32)cc1` [Cpd 317, 8-(4-ethyl-phenyl)-5-oxo-2-(4-pyrrol-1-yl-phenylamino)-5,8-dihydro-pyrido[2,3-d]pyrimidine-6-carboxylic acid methoxy-amide] was tested, and the IC50 was 5.5 nM. In the case of `CONC(=O)c1cn(-c2ccc3c(c2)CCC3)c2nc(Nc3ccc(CCN4CC[C@H](F)C4)cc3)ncc2c1=O` [Cpd 253, 2-(4-{2-[(3S)-(3-fluoro-pyrrolidin-1-yl)]-ethyl}-phenylamino)-8-indan-5-yl-5-oxo-5,8-dihydro-pyrido[2,3-d]pyrimidine-6-carboxylic acid methoxy-amide], the IC50 is reported as 0.66 nM. `CONC(=O)c1cn(C2CCCC2)c2nc(Nc3ccc(C4CCNCC4)cc3)ncc2c1=O` [Cpd 45, 8-cyclopentyl-5-oxo-2-(4-piperidin-4-yl-phenylamino)-5,8-dihydro-pyrido[2,3-d]pyrimidine-6-carboxylic acid methoxy-amide] was tested, and the IC50 was 1.9 nM. In the case of `CONC(=O)c1cn(C2CCCCC2)c2nc(Nc3ccc(C[C@H]4COC(=O)N4)cc3)ncc2c1=O` [Cpd 22, (S)-8-cyclohexyl-5-oxo-2-[4-(2-oxo-oxazolidin-4-ylmethyl)-phenylamino]-5,8-dihydro-pyrido[2,3-d]pyrimidine-6-carboxylic acid methoxy-amide], the IC50 is reported as 1.5 nM. `NC(=O)c1cn(-c2ccc3c(c2)CCC3)c2nc(Nc3ccc(C(=O)N4CCCC4)cc3)ncc2c1=O` [Cpd 122, 8-indan-5-yl-5-oxo-2-[4-(pyrrolidine-1-carbonyl)-phenylamino]-5,8-dihydro-pyrido[2,3-d]pyrimidine-6-carboxylic acid amide] was tested, and the IC50 was 6.6 nM. Molecule `CCc1ccc(-n2cc(C(=O)NOC)c(=O)c3cnc(Nc4ccc(O[C@@H]5O[C@H](CO)[C@@H](O)[C@H](O)[C@@H]5O)cc4)nc32)cc1` [Cpd 296, 8-(4-ethyl-phenyl)-5-oxo-2-{4-[(2S,3S,4S,5S,6R)(3,4,5-trihydroxy-6-hydroxymethyl-tetrahydro-pyran-2-yloxy)]-phenylamino}-5,8-dihydro-pyrido[2,3-d]pyrimidine-6-carboxylic acid methoxy-amide] has an IC50 of 0.8 nM. Work on `CONC(=O)c1cn(-c2ccc3c(c2)CCC3)c2nc(Nc3ccc(CCN4CCN(S(C)(=O)=O)CC4)cc3)ncc2c1=O` [Cpd 146, 8-indan-5-yl-2-{4-[2-(4-methanesulfonyl-piperazin-1-yl)-ethyl]-phenylamino}-5-oxo-5,8-dihydro-pyrido[2,3-d]pyrimidine-6-carboxylic acid methoxy-amide] yielded an IC50 of 1.2 nM. For `CCc1ccc(-n2cc(C(=O)NOC)c(=O)c3cnc(Nc4cccc(N(C)C)c4)nc32)cc1` [Cpd 319, 2-(3-dimethylamino-phenylamino)-8-(4-ethyl-phenyl)-5-oxo-5,8-dihydro-pyrido[2,3-d]pyrimidine-6-carboxylic acid methoxy-amide], the IC50 was 1.7 nM. Molecule `CONC(=O)c1cn(-c2ccc3c(c2)CCC3)c2nc(Nc3cccc(CCN4CCN(C(C)=O)CC4)c3)ncc2c1=O` [Cpd 204, 2-{3-[2-(4-acetyl-piperazin-1-yl)-ethyl]-phenylamino}-8-indan-5-yl-5-oxo-5,8-dihydro-pyrido[2,3-d]pyrimidine-6-carboxylic acid methoxy-amide] has an IC50 of 1.2 nM. For `CONC(=O)c1cn(-c2ccc3c(c2)CCC3)c2nc(Nc3ccc(CCN4CCCC(F)(F)C4)cc3)ncc2c1=O`, the IC50 was 1.7 nM. Work on `CONC(=O)c1cn(-c2ccc3c(c2)CCC3)c2nc(Nc3cccc(N4CC(C)NC(C)C4)c3)ncc2c1=O` (stereo not drawn) [Cpd 195, 2-[3-(3,5-dimethyl-piperazin-1-yl)-phenylamino]-8-indan-5-yl-5-oxo-5,8-dihydro-pyrido[2,3-d]pyrimidine-6-carboxylic acid methoxy-amide] yielded an IC50 of 0.96 nM. `CCc1ccc(-n2cc(C(=O)NOC)c(=O)c3cnc(Nc4ccc5c(c4)OCCOCCOCCOCCO5)nc32)cc1` [Cpd 297, 8-(4-ethyl-phenyl)-2-(6,7,9,10,12,13,15,16-octahydro-5,8,11,14,17-pentaoxa-benzocyclopentadecen-2-ylamino)-5-oxo-5,8-dihydro-pyrido[2,3-d]pyrimidine-6-carboxylic acid methoxy-amide] gave an IC50 of 0.4 nM.
